From the supplement of paper PMC10307832

How the values were obtained:
Assay in all cases: relative viability (nuclei count vs DMSO), 5 days (fraction); higher = more cells survive
[1] = compound: CC1(C)CNc2cc(NC(=O)c3cccnc3NCc3ccncc3)ccc21 [Motesanib] + CC(=O)c1c(C)c2cnc(Nc3ccc(N4CCNCC4)cn3)nc2n(C2CCCC2)c1=O [Palbociclib] (partner 0.5 µM)
How it was run: (§1)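 Values are medians from duplicate plates. Each reflects relative viability, defined as the nuclei count of treated wells over that of vehicle wells. Lung cancer cell lines in 1536-well plates were pin-tool dosed one day after seeding with one drug alone or with a fixed anchor-drug dose plus five library-drug doses (not always all listed) in √10 steps, then fixed, stained and imaged at 4× after 5 days.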

[2] = compound: CC1(C)CNc2cc(NC(=O)c3cccnc3NCc3ccncc3)ccc21 [Motesanib] + Cc1nc(NC(=O)N2CCC[C@H]2C(N)=O)sc1-c1ccnc(C(C)(C)C(F)(F)F)c1 [Alpelisib] (partner 2 µM)
How it was run: as §1

[3] = compound: C[C@@]1(C(=O)Nc2ccc(F)nc2)CCCN1c1nc(Nc2cc(C3CC3)n[nH]2)c2cccn2n1 + Nc1nc2[nH]cc(CCc3ccc(C(=O)N[C@@H](CCC(=O)O)C(=O)O)cc3)c2c(=O)[nH]1 [Pemetrexed] (partner 0.2 µM)
How it was run: as §1

[4] = compound: C[C@@]1(C(=O)Nc2ccc(F)nc2)CCCN1c1nc(Nc2cc(C3CC3)n[nH]2)c2cccn2n1 + CS(=O)(=O)N1CCN(Cc2cc3nc(-c4cccc5[nH]ncc45)nc(N4CCOCC4)c3s2)CC1 [Pictilisib] (partner 1 µM)
How it was run: as §1

| Cell Line | relative viability ([1]; first compound 0.01 µM) | relative viability ([1]; first compound 0.03162 µM) | relative viability ([1]; first compound 0.1 µM) | relative viability ([1]; first compound 0.3162 µM) | relative viability ([1]; first compound 1 µM) | relative viability ([2]; first compound 0.01 µM) | relative viability ([2]; first compound 0.03162 µM) | relative viability ([2]; first compound 0.1 µM) | relative viability ([2]; first compound 0.3162 µM) | relative viability ([2]; first compound 1 µM) | relative viability ([3]; first compound 0.04 µM) | relative viability ([3]; first compound 0.1265 µM) | relative viability ([3]; first compound 0.4 µM) | relative viability ([3]; first compound 1.265 µM) | relative viability ([4]; first compound 0.04 µM) | relative viability ([4]; first compound 0.1265 µM) | relative viability ([4]; first compound 0.4 µM) | relative viability ([4]; first compound 1.265 µM) |
| --- | --- | --- | --- | --- | --- | --- | --- | --- | --- | --- | --- | --- | --- | --- | --- | --- | --- | --- |
| EMC-BAC-2 | 0.513 | 0.511 | 0.526 | 0.526 | 0.534 | 0.76 | 0.742 | 0.768 | 0.731 | 0.704 | 0.454 | 0.42 | 0.471 | 0.439 | 0.514 | 0.498 | 0.358 | 0.495 |
| LK-2 | 0.784 | 0.659 | 0.537 | 0.667 | 0.708 | 1.06 | 0.962 | 1.44 | 1.05 | 1.19 | 0.175 | 0.195 | – | 0.156 | 0.574 | 0.565 | 0.569 | 0.523 |
| NCI-H2126 | 0.333 | 0.35 | 0.341 | 0.347 | 0.412 | 0.77 | 0.723 | 0.724 | 0.768 | 0.699 | 0.622 | 0.463 | 0.379 | 0.465 | 0.456 | 0.392 | 0.394 | 0.436 |
| NCI-H3122 | 0.186 | 0.194 | 0.213 | 0.217 | 0.161 | 0.789 | 0.79 | 0.915 | 0.921 | 0.946 | 0.202 | 0.175 | 0.178 | 0.18 | 0.479 | 0.374 | 0.479 | 0.393 |
| NCI-H1975 | 0.53 | 0.508 | 0.507 | 0.565 | 0.617 | 0.681 | 0.588 | 0.615 | 0.61 | 0.675 | 0.302 | 0.298 | 0.274 | 0.268 | 0.226 | 0.211 | 0.188 | 0.197 |
| NCI-H1944 | 0.352 | 0.328 | 0.334 | 0.302 | 0.326 | 0.785 | 0.853 | 0.89 | 0.885 | 0.855 | 0.605 | 0.554 | 0.497 | 0.544 | 0.29 | 0.323 | 0.283 | 0.316 |
| LU99A | 0.412 | 0.489 | 0.435 | 0.334 | 0.417 | 0.465 | 0.555 | 0.511 | 0.488 | 0.559 | 0.187 | 0.165 | 0.183 | 0.165 | 0.233 | 0.217 | 0.225 | 0.163 |
| NCI-H1299 | – | – | – | – | – | 1.03 | 1.09 | 1.15 | 1.11 | 1.12 | – | – | – | – | 0.752 | 0.844 | 0.669 | 0.286 |
| NCI-H727 | 0.631 | 0.652 | 0.687 | 0.639 | 0.606 | 0.599 | 0.678 | 0.504 | 0.514 | 0.602 | – | – | – | – | 0.328 | 0.179 | 0.306 | 0.155 |
| ABC-1 | 0.633 | 0.541 | 0.7 | 0.938 | 0.763 | 1.02 | 0.995 | 1.24 | 0.974 | 1.18 | – | – | – | – | 0.598 | 0.6 | 0.467 | 0.394 |
| NCI-H1650 | 0.351 | 0.385 | 0.349 | 0.346 | 0.343 | – | – | – | – | – | 0.38 | 0.29 | 0.334 | 0.319 | 0.561 | 0.489 | 0.533 | 0.403 |
| ChaGo-K-1 | 0.899 | 0.881 | 0.976 | 0.856 | 0.908 | – | – | – | – | – | 0.252 | 0.253 | 0.273 | 0.258 | 0.643 | 0.662 | 0.849 | 0.371 |
| SW 900 | 0.489 | 0.53 | 0.56 | 0.614 | 0.564 | – | – | – | – | – | 0.439 | 0.492 | 0.476 | 0.467 | – | – | – | – |
| NCI-H596 | – | – | – | – | – | 0.489 | 0.417 | 0.496 | 0.542 | 0.498 | 0.494 | 0.497 | 0.431 | 0.487 | 0.378 | 0.349 | 0.335 | 0.316 |
| NCI-H1563 | – | – | – | – | – | 0.985 | 0.92 | 0.946 | 0.879 | 0.95 | 0.92 | 0.708 | 0.73 | 0.662 | 0.625 | 0.614 | 0.596 | 0.598 |
| A549 | – | – | – | – | – | 0.785 | 0.866 | 0.728 | 0.779 | 0.909 | – | – | – | – | 0.283 | 0.292 | 0.172 | 0.148 |
| NCI-H2342 | 0.508 | 0.52 | 0.539 | 0.527 | 0.554 | – | – | – | – | – | 0.819 | 0.725 | 0.579 | 0.664 | – | – | – | – |
| NCI-H522 | 1.15 | 1.01 | 1 | 0.84 | 1.26 | – | – | – | – | – | 0.832 | 1.25 | 0.706 | 0.933 | – | – | – | – |
| IA-LM | – | – | – | – | – | 0.616 | 0.788 | 0.711 | 0.891 | 0.746 | – | – | – | – | 0.175 | 0.261 | 0.125 | 0.179 |
| EBC-1 | – | – | – | – | – | 0.795 | 0.914 | 0.899 | 0.847 | 0.925 | – | – | – | – | 0.32 | 0.231 | 0.241 | 0.162 |
